The target of experiment [1] is T1, hTLR8 (human Toll-like receptor 8) (Homo sapiens, UniProt Q9NR97).
T1 construct: host or cells: HEK-Blue hTLR8 (HEK293-derived reporter cells)
T1 sequence (Q9NR97 27-1041): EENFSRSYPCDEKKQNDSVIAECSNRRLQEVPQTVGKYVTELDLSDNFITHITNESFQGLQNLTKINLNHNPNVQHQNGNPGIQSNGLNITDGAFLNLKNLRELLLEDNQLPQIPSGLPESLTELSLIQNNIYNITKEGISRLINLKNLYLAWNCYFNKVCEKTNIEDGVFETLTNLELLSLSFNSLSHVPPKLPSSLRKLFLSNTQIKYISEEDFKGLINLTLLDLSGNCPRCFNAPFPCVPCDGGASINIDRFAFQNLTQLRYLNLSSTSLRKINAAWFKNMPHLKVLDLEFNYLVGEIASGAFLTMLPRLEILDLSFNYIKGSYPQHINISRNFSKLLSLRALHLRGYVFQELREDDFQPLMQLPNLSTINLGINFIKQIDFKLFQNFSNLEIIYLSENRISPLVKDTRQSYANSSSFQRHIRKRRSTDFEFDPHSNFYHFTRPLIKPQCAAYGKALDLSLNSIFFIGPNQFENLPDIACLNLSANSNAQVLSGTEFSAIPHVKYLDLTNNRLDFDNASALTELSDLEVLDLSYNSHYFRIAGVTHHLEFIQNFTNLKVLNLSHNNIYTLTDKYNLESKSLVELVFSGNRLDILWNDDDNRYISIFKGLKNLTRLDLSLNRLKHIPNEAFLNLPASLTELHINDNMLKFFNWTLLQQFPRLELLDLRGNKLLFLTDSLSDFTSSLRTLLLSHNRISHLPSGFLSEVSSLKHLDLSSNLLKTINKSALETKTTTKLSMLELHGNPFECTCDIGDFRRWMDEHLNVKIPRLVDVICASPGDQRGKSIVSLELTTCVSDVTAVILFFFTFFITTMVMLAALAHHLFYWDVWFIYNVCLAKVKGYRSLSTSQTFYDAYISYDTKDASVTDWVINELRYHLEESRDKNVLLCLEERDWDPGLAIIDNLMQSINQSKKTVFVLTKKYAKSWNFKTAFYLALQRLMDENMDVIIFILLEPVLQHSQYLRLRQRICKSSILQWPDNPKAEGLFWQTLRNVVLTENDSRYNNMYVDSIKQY
Briefly: HEK-Blue hTLR8 reporter assay (QUANTI-Blue, OD650). The class given is cell-based. As to conditions: HEK-Blue hTLR8 cells, 24 h, read-out: Reporter assay TLR8 EC50. The procedure: (§1) In this example, the agonistic activity of the compounds of the present application on hTLR7 (human Toll-like receptor 7) and hTLR8 (human Toll-like receptor 8) was assessed; the induction activity of the compounds on human PBMCs for TNF-α and IFN-α production was assessed in human PBMCs (human peripheral blood mononuclear cells).
(§2) All compounds were formulated in DMSO into 30 mM stock solutions and preserved at 4° C. The reference compound ([…], Cat. No. tlrl-r848-5) was purchased from InvivoGen and formulated into a 5 mg/mL stock solution in DMSO and preserved in a freezer at −20° C. HEK-Blue hTLR7 and HEK-Blue hTLR8 cell lines were purchased from InvivoGen, and human PBMCs were purchased from Shanghai Saily Biotechnology Co., Ltd. (Cat. No. XFB—HP100B).
(§3) The major instruments used in this study were multifunctional microplate reader Flexstation III (Molecular Device), Envision (Perkin Elmer), M2e (Molecular Device), and Echo555 (Labcyte). 2.1 Agonistic activity of compounds on hTLR7 (human Toll-like receptor 7) and hTLR8 (human Toll-like receptor 8)
(§4) Compound dilution: The compounds of the present application are diluted in DMSO, for example, to about 15 mM. The reference compound was added to the plates in sequence after dilution. The compounds were serially 3-fold diluted to 10 concentrations and added to 96-well plates in duplicate.
(§5) For the negative control wells, DMSO was added at 0.2 μL/well, and the reference compound was added to the positive control wells. The final concentration of DMSO was 0.2%.
(§6) Cell plating: When an 80% confluence of HEK Blue hTLR7&8 cells in the culture flask was observed under a microscope, the culture medium was discarded, 10 mL of detection medium was added, and the cells were separated by pipetting. The cells were counted on a cytometer and diluted to 500,000 cells/mL. The cells were plated at 100 μL/50,000 cells/well in the 96-well plates containing the compounds. The compounds and cells were co-incubated at 37° C. in a 5% CO2 incubator for 24 hours.
(§7) Compound activity detection: 20 μL of cell supernatant was taken from each well and added to a plate containing QUANTI-Blue™ reagent at 180 μL/well. The plate was incubated at 37° C. for 1 hour, and the absorbance at 650 nm (OD650) was measured on the multifunctional microplate reader Flexstation III.
(§8) Compound activity data analysis: The OD650 values were analyzed by GraphPad Prism software and fitted to give dose-response curves of the compounds. The EC50 values of compounds were calculated.

Experiment [2] addresses T2, hTLR7 (human Toll-like receptor 7) (Homo sapiens, UniProt Q9NYK1).
T2 construct: host or cells: HEK-Blue hTLR7 (HEK293-derived reporter cells)
T2 sequence (Q9NYK1 27-1049): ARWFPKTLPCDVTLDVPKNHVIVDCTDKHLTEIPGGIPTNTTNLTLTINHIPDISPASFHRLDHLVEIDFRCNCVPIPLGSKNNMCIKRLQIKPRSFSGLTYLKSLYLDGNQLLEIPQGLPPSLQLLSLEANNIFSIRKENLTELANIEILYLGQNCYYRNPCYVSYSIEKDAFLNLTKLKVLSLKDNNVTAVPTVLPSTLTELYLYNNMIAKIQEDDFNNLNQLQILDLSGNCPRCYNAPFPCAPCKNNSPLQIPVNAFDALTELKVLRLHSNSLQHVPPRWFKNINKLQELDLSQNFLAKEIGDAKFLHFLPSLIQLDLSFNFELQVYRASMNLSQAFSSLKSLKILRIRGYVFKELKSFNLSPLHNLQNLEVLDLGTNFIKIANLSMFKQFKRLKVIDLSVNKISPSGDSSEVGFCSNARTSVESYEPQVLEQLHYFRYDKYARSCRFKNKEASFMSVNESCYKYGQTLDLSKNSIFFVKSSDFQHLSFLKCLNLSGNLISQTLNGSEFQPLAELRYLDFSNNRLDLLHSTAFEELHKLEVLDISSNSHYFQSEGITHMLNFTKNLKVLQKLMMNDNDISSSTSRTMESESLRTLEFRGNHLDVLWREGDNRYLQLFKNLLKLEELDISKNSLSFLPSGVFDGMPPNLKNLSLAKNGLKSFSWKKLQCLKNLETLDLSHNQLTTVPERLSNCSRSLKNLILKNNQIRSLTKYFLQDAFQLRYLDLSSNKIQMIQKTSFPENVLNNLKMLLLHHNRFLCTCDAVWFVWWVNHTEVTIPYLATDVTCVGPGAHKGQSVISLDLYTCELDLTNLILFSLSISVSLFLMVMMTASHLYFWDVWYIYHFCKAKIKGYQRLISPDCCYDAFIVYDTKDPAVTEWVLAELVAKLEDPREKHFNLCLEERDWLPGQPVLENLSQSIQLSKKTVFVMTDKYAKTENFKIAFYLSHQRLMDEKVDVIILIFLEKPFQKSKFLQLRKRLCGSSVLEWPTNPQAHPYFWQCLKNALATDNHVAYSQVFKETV
Kind of experiment: HEK-Blue hTLR7 reporter assay (QUANTI-Blue, OD650). To be noted: HEK-Blue hTLR7 cells, 24 h, read-out: Reporter assay TLR7 EC50. The experiment is classed as cell-based. The procedure: as §1, §2, §3, §4, §5, §6, §7, §8

Molecules are shown by their SMILES. Like-named read-outs stand apart in the source and are kept apart here.

In the case of `CCCN(OCc1ccc(N)cc1)C(=O)C1=Cc2ccc(C(=O)N3CC[C@H](O)C3)cc2N=C(N)C1` [Compound 46B], the EC50 (in general, the midpoint of the concentration-response curve) in experiment [1] (class symbols) was 0.01 to 0.1 µM; in experiment [2] (class symbols) it was over 1 µM.
For `CCCN(OCc1ccc(N)cc1)C(=O)C1=Cc2ccc(C(=O)N3CC[C@@H](O)C3)cc2N=C(N)C1` [Compound 46A], in that order: 0.01 to 0.1 µM and over 1 µM.
In the case of `CCCN(OCc1ccc(N)cc1)C(=O)C1=Cc2ccc(C(=O)N3CCOCC3)cc2N=C(N)C1` [Compound 39], the values for the EC50 in experiment [1] and in experiment [2] were 0.0028 µM and 3.55 µM, respectively.
